Counter-ions that a name gives are not always drawn. Like-named read-outs stand apart in the source and are kept apart here.
Molecular target: T1, human calcium receptor (Homo sapiens, UniProt P41180, R990G)
T1 construct: expressed in transfected cells; host or cells: HEK 293
T1 sequence (P41180 20-1078 R990G): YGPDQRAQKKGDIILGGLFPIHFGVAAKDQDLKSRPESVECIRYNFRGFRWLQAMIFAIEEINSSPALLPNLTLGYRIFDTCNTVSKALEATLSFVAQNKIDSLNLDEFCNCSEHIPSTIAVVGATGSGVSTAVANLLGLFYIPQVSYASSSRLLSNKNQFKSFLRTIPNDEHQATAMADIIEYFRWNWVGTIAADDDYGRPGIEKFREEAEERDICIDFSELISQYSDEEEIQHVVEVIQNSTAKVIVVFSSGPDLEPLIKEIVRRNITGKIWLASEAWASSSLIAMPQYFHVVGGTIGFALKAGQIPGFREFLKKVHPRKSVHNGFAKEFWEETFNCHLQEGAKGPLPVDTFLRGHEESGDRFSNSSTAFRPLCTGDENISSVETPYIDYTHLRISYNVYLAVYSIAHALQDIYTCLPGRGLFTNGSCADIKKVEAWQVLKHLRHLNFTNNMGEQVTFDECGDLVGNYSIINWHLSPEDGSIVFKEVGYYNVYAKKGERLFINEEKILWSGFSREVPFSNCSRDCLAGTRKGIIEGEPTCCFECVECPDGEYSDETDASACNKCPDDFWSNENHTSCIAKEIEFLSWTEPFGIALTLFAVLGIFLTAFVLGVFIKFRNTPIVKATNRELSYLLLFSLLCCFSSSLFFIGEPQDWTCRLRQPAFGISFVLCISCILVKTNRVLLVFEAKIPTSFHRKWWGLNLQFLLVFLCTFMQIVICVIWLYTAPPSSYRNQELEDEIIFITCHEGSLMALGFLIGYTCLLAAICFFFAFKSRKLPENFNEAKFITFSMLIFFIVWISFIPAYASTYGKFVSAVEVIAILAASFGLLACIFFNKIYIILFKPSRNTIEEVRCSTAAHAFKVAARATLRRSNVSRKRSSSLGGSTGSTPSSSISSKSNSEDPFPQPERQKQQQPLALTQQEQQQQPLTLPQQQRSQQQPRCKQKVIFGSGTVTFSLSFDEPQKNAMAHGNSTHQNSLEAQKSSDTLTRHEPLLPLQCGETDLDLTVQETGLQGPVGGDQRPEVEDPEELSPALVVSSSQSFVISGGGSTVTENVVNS
Assay: increases in [Ca^2+ ]i in HEK-293 cells expressing the human calcium receptor (fura-2 loaded HEK 293/pHuPCaR4.0 cells), % activity
Type: cell-based
Conditions: for activity at […]: HEK293

Row | Structure (SMILES) | % activity (33 ng/mL) | % activity (330 ng/mL) | % activity (3300 ng/mL) | activity at […] (33 ng/mL) | activity at […] (330 ng/mL) | % activity
1 | COc1ccc(CNC(C)c2cccc(I)c2)cc1C (stereo not shown) [Compound 23S] | 53% | 97% |  |  |  | 
2 | CC(C=Cc1ccccc1)NC(C)c1ccccc1 (mixture of isomers) [Compound 5D] | 18% | 62% |  |  |  | 
3 | COc1ccccc1CCCN[C@H](C)c1cccc2ccccc12 [Compound 16I] | 96% | 117% | 121% |  |  | 
4 | COc1ccc(CNC(C)c2ccccc2OC)cc1C (stereo not shown) [Compound 23H] |  |  |  | 77% | 114% | 
5 | CC(c1ccc(C(C)(C)C)cc1)N(C)CCCc1ccccc1 (stereo not shown) [Compound 14J] | 6% | 41% | 55% |  |  | 
6 | COc1ccc(CNCc2cccc3ccccc23)cc1C [Compound 17Y] | 79% | 94% | 109% |  |  | 
7 | CCOc1cccc([C@@H](C)NCCCc2ccccc2)c1 [Compound 6R, (R)-N-(3-phenylpropyl)-1-(3-ethoxyphenyl)ethylamine] | 52% | 94% |  |  |  | 
8 | C[C@H](CCc1cccc(OC(F)(F)F)c1)N[C@H](C)c1cccc2ccccc12 [Compound 22Y, (R,R)-N-[4-(3-trifluoromethoxyphenyl)-2-butyl]-1-(1-naphthyl)ethylamine] |  |  |  | 64% | 114% | 
9 | COc1ccc(CNC(C)c2cccc(C#N)c2)cc1C (stereo not shown) [Compound 24E] | 35% | 71% | 94% |  |  | 
10 | COc1cccc([C@@H](C)NCCCc2c(F)cccc2F)c1 [Compound 24L] | 62% | 105% |  |  |  | 
11 | CC(NC1CCc2ccccc2C1)c1ccccc1 (mixture of isomers) [Compound 4B] | 8% |  |  |  |  | 45
12 | COc1cccc([C@@H](C)N[C@H](C)CCc2cccc(OC(F)(F)F)c2)c1 [Compound 23A, (R,R)-N-[4-(3-trifluoromethoxyphenyl)-2-butyl]-1-(3-methoxyphenyl)ethylamine] | 67% | 103% |  |  |  | 
13 | CSc1cccc(C(C)NCCCc2ccccc2)c1 (stereo not shown) [Compound 8J, N-(3-phenylpropyl)-1-(3-thiomethylphenyl)ethylamine hydrochloride] | 77% | 104% |  |  |  | 
14 | COc1cccc([C@@H](C)NCC=Cc2ccc(C)cc2)c1 [Compound 12B, (R)-N-[3-(4-methylphenyl)prop-2-enyl]-1-(3-methoxyphenyl)ethylamine] | 56% | 110% | 130% |  |  | 
15 | COc1cccc(C(C)NCCC(C)c2ccc(Cl)cc2)c1 (stereo not shown) [5B/5C, N-[3-methyl-3-(4-chlorophenyl)propyl]-1-(3-methoxyphenyl)ethylamine] | 20% | 65% |  |  |  | 
16 | COc1ccc(CNC(C)c2c(OC)ccc3ccccc23)cc1C (stereo not shown) [Compound 18B] | 69% | 96% | 111% |  |  | 
17 | COc1cccc([C@@H](C)NCC=Cc2ccc(C(C)C)cc2)c1 [Compound 12E, (R)-N-[3-(4-isopropylphenyl)prop-2-enyl]-1-(3-methoxyphenyl)ethylamine] | 73% | 121% | 117% |  |  | 
18 | COc1cccc(C(C)NCc2ccc(OC)c(C)c2)c1 (stereo not shown) [Compound 23I] | 58% | 102% |  |  |  | 

From patent US6211244A, “Calcium receptor-active compounds” (priority 1995, dated 2001)
